The values that follow are results of earlier work, collected in patent US20070166321A1, “Compositions and Methods for Reducing Cholesterol and Inflammation” (priority 2006, published 2007).

The conditions of data set [1]: in vivo.
Data set [2] concerns 12-O-tetradecanoylphorbol-13 acetate (TPA) induced inflammation. Conditions: for 50%-inflammation reduction index ID50: TPA-induced inflammation.
Experiment in data set [3]: not given
The source holds these as a separate data set.

“Also recorded” adds a separate entry of the source.

Consider `CS(=O)(=O)c1ccc(C2=C(c3ccccc3)C(=O)OC2)cc1` [Vioxx], for which the “increase of cardiovascular disease” value in data set [1] is roughly 4 fold. Take `C[C@H]1[C@H](C)CC[C@]2(C(=O)O)CC[C@]3(C)C(=CC[C@@H]4[C@@]5(C)C[C@@H](O)[C@H](O)C(C)(C)[C@@H]5CC[C@]43C)[C@H]12` [corosolic acid]: the “effect on glucose levels of non-diabetics” value is reported as “does not significantly reduce glucose levels”. Further, the “50%-inflammation reduction index ID50” value in data set [2] is reported as 0.03 mg. The “inhibition of TPA induced inflammation, potency comparison” value in data set [2] (compared with reference antiinflammatory drugs) is “potency similar to the antiinflammatory drug indomethasin; also recorded: potency similar to the antiinflammatory drugs indomethasin and hydrocortisone”. Besides, in data set [3], the solubility in water result is listed as “low solubility in water”. Take `C[C@]12CCC(=O)C=C1CC[C@@H]1[C@@H]2[C@@H](O)C[C@@]2(C)[C@H]1CC[C@]2(O)C(=O)CO` [hydrocortisone]: in data set [2], the “50%-inflammation reduction index ID50” value was 0.03 mg.

Regarding `COc1ccc2c(c1)c(CC(=O)O)c(C)n2C(=O)c1ccc(Cl)cc1` [indomethacin], the “50%-inflammation reduction index ID50” value in data set [2] is reported as 0.3 mg.
